Measurements: article doi:10.1101/2021.04.08.439011v1 (biorxiv, 2021)

Legend:
[1] = biological target: RPS6KA5(Kin.Dom.2-C-terminal) (Homo sapiens, UniProt O75582); conditions: 0.1 µM; binder
ERBB4 = ERBB4 (Homo sapiens, UniProt Q15303); conditions: 1 µM; binder
PIK4CB = PIK4CB (Homo sapiens, UniProt Q9UBF8); conditions: 1 µM; binder
NEK2 = NEK2 (Homo sapiens, UniProt P51955); conditions: 1 µM; binder
SGK2 = SGK2 (Homo sapiens, UniProt Q9HBY8); conditions: 1 µM; binder
PIP5K1A = PIP5K1A (Homo sapiens, UniProt Q99755); conditions: 1 µM; binder
PIK3CA(E545K) = PIK3CA(E545K) (Homo sapiens, UniProt P42336, E545K); conditions: 1 µM; binder
YES = YES (Homo sapiens, UniProt P07947); conditions: 1 µM; binder
NEK6 = NEK6 (Homo sapiens, UniProt Q9HC98); conditions: 1 µM; binder
PKAC-beta = PKAC-beta (Homo sapiens, UniProt P22694); conditions: 1 µM; binder
VEGFR2 = VEGFR2 (Homo sapiens, UniProt P35968); conditions: 1 µM; binder
ACVR1 = ACVR1 (Homo sapiens, UniProt Q04771); conditions: 1 µM; binder

PIK3CA(E545K), sequence (P42336 whole entry E545K): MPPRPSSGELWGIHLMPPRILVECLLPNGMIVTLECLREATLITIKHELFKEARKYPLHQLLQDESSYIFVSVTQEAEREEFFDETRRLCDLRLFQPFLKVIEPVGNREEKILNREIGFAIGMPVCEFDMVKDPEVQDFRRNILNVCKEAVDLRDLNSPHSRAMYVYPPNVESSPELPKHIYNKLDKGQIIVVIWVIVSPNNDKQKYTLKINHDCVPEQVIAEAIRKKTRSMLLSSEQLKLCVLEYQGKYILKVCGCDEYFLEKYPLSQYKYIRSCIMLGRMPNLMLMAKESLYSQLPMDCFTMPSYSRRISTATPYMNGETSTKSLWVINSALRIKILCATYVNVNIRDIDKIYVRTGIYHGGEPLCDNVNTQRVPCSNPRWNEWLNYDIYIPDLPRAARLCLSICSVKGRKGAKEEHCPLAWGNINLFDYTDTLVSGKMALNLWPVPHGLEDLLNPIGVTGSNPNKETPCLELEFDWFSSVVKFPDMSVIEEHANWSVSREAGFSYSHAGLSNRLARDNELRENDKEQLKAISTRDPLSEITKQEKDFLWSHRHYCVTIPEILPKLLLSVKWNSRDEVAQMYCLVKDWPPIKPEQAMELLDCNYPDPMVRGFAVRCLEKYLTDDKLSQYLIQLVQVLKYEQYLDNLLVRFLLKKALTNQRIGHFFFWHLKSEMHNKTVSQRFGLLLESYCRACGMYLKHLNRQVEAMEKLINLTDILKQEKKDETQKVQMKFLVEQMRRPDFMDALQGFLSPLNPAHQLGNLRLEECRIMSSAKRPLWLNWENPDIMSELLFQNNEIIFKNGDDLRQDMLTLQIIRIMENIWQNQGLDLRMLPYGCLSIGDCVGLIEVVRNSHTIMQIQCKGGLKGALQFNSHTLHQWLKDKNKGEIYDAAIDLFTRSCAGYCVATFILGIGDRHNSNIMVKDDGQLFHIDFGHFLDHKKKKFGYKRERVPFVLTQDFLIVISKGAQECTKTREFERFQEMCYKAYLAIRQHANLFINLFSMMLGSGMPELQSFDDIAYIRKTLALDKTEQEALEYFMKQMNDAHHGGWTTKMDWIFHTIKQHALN
SGK2, sequence (Q9HBY8 whole entry): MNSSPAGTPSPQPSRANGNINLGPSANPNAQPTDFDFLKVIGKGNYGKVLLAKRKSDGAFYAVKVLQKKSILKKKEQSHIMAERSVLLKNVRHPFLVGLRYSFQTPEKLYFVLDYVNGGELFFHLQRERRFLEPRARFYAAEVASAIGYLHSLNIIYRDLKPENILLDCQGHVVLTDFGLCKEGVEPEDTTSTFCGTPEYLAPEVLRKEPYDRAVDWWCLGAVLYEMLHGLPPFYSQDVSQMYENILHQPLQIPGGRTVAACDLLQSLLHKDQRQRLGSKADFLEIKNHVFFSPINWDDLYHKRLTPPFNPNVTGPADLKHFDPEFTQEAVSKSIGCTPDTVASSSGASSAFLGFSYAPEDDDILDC
ERBB4, sequence (Q15303 whole entry): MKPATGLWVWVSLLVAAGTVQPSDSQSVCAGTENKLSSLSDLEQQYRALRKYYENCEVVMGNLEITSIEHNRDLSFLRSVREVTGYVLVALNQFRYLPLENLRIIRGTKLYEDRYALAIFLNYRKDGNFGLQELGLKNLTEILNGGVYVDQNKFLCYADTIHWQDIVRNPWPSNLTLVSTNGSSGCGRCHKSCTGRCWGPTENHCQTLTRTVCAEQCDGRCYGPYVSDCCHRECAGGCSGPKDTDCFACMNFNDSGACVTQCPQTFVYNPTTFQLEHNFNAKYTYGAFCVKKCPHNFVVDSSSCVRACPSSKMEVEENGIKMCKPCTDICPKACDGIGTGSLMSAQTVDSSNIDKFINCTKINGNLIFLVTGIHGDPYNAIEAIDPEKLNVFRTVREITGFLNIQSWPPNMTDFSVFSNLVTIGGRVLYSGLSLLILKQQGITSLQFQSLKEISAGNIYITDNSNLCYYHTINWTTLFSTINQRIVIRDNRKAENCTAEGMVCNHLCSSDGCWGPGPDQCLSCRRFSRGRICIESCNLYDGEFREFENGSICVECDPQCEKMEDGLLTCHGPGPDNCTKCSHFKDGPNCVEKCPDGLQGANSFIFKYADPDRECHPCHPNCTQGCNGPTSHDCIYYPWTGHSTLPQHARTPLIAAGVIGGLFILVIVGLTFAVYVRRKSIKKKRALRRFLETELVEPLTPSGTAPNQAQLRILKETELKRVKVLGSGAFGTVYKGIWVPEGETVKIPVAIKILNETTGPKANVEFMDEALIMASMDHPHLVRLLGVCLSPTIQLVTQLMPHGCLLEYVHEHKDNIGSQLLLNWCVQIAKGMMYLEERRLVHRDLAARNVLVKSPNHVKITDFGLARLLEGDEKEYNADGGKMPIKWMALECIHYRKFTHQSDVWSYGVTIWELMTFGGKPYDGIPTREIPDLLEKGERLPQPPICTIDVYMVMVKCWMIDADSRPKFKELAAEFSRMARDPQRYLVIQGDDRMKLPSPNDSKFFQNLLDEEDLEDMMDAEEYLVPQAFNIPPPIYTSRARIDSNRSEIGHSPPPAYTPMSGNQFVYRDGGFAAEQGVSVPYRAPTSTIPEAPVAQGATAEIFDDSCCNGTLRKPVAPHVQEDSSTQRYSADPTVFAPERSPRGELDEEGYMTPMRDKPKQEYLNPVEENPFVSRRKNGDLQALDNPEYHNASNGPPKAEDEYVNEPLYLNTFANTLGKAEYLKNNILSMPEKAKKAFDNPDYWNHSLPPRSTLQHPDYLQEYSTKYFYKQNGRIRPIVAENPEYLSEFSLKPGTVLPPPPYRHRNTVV
RPS6KA5(Kin.Dom.2-C-terminal), sequence (O75582 whole entry): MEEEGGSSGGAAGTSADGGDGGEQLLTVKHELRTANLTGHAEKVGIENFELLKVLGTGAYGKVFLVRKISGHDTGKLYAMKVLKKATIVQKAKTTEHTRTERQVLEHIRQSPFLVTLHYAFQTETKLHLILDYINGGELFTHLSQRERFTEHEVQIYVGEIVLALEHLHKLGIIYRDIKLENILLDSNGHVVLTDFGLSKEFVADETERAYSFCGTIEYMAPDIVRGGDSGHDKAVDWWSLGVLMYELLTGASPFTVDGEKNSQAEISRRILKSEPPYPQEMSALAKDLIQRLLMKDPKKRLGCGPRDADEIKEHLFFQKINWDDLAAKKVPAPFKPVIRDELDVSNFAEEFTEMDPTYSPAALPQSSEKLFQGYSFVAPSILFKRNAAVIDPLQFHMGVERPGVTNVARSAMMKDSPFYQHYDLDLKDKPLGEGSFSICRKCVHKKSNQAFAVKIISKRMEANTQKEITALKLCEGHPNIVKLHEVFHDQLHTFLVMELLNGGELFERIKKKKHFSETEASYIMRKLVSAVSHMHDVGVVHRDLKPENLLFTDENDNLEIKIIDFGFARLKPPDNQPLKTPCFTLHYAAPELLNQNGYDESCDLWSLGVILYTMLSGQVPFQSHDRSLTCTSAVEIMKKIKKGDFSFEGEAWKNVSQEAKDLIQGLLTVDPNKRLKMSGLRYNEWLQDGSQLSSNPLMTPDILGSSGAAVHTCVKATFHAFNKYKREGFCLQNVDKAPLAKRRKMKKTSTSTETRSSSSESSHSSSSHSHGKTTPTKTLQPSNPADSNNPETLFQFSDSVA
YES, sequence (P07947 whole entry): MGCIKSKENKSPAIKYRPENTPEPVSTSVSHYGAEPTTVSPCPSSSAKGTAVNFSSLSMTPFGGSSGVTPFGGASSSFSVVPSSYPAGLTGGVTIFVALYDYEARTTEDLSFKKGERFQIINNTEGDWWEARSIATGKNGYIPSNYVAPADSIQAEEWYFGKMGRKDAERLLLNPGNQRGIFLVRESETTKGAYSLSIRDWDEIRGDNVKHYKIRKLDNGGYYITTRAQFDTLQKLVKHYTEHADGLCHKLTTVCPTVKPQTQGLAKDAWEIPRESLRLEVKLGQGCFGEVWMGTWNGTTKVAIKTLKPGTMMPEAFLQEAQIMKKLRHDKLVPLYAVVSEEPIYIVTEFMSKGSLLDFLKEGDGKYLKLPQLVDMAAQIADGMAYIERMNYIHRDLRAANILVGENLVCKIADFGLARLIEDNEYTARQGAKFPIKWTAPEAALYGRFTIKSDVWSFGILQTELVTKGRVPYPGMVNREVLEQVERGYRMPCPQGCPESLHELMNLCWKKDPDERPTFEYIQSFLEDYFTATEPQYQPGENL
PIK4CB, sequence (Q9UBF8 whole entry): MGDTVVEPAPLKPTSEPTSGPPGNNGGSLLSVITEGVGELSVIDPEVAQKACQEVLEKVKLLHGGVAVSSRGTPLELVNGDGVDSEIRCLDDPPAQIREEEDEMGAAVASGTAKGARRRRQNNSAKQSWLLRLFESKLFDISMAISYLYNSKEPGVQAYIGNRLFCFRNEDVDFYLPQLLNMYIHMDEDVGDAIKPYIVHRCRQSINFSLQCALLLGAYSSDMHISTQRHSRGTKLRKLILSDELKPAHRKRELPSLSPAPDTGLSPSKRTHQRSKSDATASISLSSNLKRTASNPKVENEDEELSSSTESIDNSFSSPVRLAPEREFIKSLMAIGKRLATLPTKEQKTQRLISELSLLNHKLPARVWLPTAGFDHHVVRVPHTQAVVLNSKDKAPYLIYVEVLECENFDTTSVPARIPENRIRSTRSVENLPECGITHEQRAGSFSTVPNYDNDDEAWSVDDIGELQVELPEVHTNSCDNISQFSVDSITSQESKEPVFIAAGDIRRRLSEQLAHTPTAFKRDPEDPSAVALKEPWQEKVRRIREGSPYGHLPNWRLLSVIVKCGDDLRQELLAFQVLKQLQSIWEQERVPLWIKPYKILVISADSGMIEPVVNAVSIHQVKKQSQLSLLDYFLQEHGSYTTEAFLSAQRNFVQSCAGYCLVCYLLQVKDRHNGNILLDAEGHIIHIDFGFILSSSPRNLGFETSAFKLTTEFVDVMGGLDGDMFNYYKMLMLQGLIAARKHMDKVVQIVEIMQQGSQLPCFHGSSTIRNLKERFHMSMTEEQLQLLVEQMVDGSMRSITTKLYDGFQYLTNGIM

With `CNc1ncc2cc(-c3ccc(-c4cccc(C)n4)cc3Cl)c(=O)n(C[C@H]3OC[C@H](N)CO3)c2n1` [compound 6, G-5555] the “Percent Control” value [1] was 100%, the “Percent Control” value (ERBB4) was 100% and the “Percent Control” value (PIK4CB) was 100%. The “Percent Control” value (NEK2) was 60%, the “Percent Control” value (SGK2) was 100% and the “Percent Control” value (PIP5K1A) was 67%. The “Percent Control” value (PIK3CA(E545K)) was 97%, the “Percent Control” value (YES) was 100% and the “Percent Control” value (NEK6) was 100%. For the same compound, the “Percent Control” value (PKAC-beta) was 95%, the “Percent Control” value (VEGFR2) was 93% and the “Percent Control” value (ACVR1) was 100%.
